Among the test systems are A549; RPMI-8226; K562; NCI/ADR-RES; IGROV-1; CCRF-CEM; MDA-MB-231; EKVX; MCF7; MOLT-4; HT-29; NCI-H226; SF-268; SNB-19; HCT-116; SK-MEL-2; SK-MEL-28; DU-145; Hs-578T; PC-3.
Assay in all cases: NCI tumour cell line growth inhibition, 48 h

This note sets out measurements from ChEMBL document CHEMBL1201862, “PubChem BioAssay data set” (2004).

Each structure is given as a SMILES string.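 Cultured in 96-well plates, cells were exposed to test compound for 48 hours across five concentrations. At the GI50, growth is halved.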 Activity calls are given as the source filed them. No stated cut-off is given here; in the data, active = GI50 up to about 1.1 µM and inactive = higher.

Consider `Clc1c2ncccc2cc2nn[nH]c12`, for which the GI50 in the experiment with A549 was > 100 µM (inactive); with RPMI-8226 it was > 100 µM (inactive); with K562 it was > 100 µM (inactive); with NCI/ADR-RES, > 100 µM (inactive); in the experiment with IGROV-1 it was 33 µM (inactive); in the experiment with CCRF-CEM, 17.3 µM (inactive). For the same compound, the GI50 was > 100 µM (inactive) in the experiment with MDA-MB-231; > 100 µM (inactive) in the experiment with EKVX; > 100 µM (inactive) in the experiment on MCF7; 15.8 µM (inactive) in the experiment with MOLT-4; > 100 µM (inactive) in the experiment on HT-29; 21.3 µM (inactive) in the experiment on NCI-H226. The GI50 in the experiment on SF-268, with SNB-19, with HCT-116, with SK-MEL-2, in the experiment with SK-MEL-28 and in the experiment with DU-145 was > 100 µM (inactive) throughout. Further, the values for the GI50 in the experiment on Hs-578T and in the experiment on PC-3 were 93.8 µM (inactive) and > 100 µM (inactive), respectively.

With `NC(=S)N/N=C1\CCCCC1C(O)(C(F)(F)Cl)C(F)(F)Cl` (stereo not given), the GI50 with A549, in the experiment with RPMI-8226, in the experiment with K562, in the experiment on NCI/ADR-RES, with IGROV-1 and with CCRF-CEM was > 10 µM (inactive) in each case. Moreover, the GI50 with MDA-MB-231, in the experiment on EKVX, with MCF7, in the experiment on MOLT-4, in the experiment with HT-29 and in the experiment on NCI-H226 was > 10 µM (inactive) throughout. In addition, the GI50 in the experiment on SF-268, in the experiment with SNB-19, in the experiment on HCT-116, with SK-MEL-2, with SK-MEL-28 and in the experiment on DU-145 was > 10 µM (inactive) in each case. Also, the GI50 with Hs-578T and in the experiment with PC-3 was > 10 µM (inactive) in each case.

In the case of `CC1(C)Cc2nc3c(cc2C(=O)C1/C=N/C(C#N)=C(\N)C#N)C(=O)C(/C=N/C(C#N)=C(\N)C#N)C(C)(C)C3` (stereo not given), the GI50 with A549 was 2.6 µM (inactive); in the experiment on RPMI-8226, 2.74 µM (inactive); in the experiment with K562 it was 3.05 µM (inactive); in the experiment with NCI/ADR-RES, 6.47 µM (inactive); in the experiment on IGROV-1 it was 1.52 µM (inactive); in the experiment on CCRF-CEM, 2.39 µM (inactive). Further, the GI50 with MDA-MB-231 is 2.82 µM (inactive); in the experiment with EKVX, 2.03 µM (inactive); in the experiment on MCF7, 2.15 µM (inactive); in the experiment with MOLT-4, 2.37 µM (inactive); in the experiment on HT-29, 2.54 µM (inactive); in the experiment on NCI-H226, 2.84 µM (inactive). Also, the GI50 in the experiment with SF-268 is 1.64 µM (inactive); in the experiment on SNB-19, 4.68 µM (inactive); in the experiment with HCT-116, 1.54 µM (inactive); in the experiment with SK-MEL-2, 2.2 µM (inactive); with SK-MEL-28, 1.98 µM (inactive); in the experiment on DU-145 it was 2.3 µM (inactive). The GI50 in the experiment on Hs-578T was 0.916 µM (active); in the experiment with PC-3 it was 1.99 µM (inactive).

For `COc1cccc(C2ON=C(c3ccccc3)N2C23CC4CC(CC(C4)C2)C3)c1` (stereo not given), the GI50 is > 10 µM (inactive) with A549; 7.24 µM (inactive) in the experiment on RPMI-8226; 8.41 µM (inactive) in the experiment on K562; > 10 µM (inactive) with NCI/ADR-RES; > 10 µM (inactive) with IGROV-1; > 10 µM (inactive) with CCRF-CEM. The GI50 in the experiment with MDA-MB-231 was > 10 µM (inactive); in the experiment on EKVX it was > 10 µM (inactive); in the experiment on MCF7 it was > 10 µM (inactive); in the experiment on MOLT-4 it was 5.5 µM (inactive); in the experiment with HT-29 it was > 10 µM (inactive); in the experiment on NCI-H226, 4.63 µM (inactive). For the same compound, the GI50 with SF-268, in the experiment with SNB-19, in the experiment on HCT-116, in the experiment with SK-MEL-2, in the experiment on SK-MEL-28 and in the experiment on DU-145 was > 10 µM (inactive) in each case. Further, the GI50 was > 10 µM (inactive) in the experiment with Hs-578T and 9.35 µM (inactive) with PC-3.

Take `CCc1n[nH]c(=O)n1N`: the GI50 in the experiment on A549, in the experiment with RPMI-8226, in the experiment on K562, in the experiment with NCI/ADR-RES, with IGROV-1 and with CCRF-CEM was > 100 µM (inactive) each time. In addition, the GI50 with MDA-MB-231, in the experiment with EKVX, with MCF7, in the experiment with MOLT-4, with HT-29 and in the experiment with NCI-H226 was > 100 µM (inactive) throughout. For the same compound, the GI50 in the experiment on SF-268, in the experiment with SNB-19, with HCT-116, in the experiment on SK-MEL-2, in the experiment on SK-MEL-28 and with DU-145 was > 100 µM (inactive) throughout. Also, the GI50 with Hs-578T and in the experiment with PC-3 was > 100 µM (inactive) each time.

`CC(C#N)(c1ccccc1)N(CCc1ccccc1)C(=O)Oc1ccccc1` (stereo not given): the GI50 with A549, with RPMI-8226, in the experiment on K562, with NCI/ADR-RES, in the experiment on IGROV-1 and in the experiment with CCRF-CEM was > 100 µM (inactive) in each case. Moreover, the GI50 with MDA-MB-231 was > 100 µM (inactive); in the experiment on EKVX, > 100 µM (inactive); in the experiment on MCF7 it was > 100 µM (inactive); with MOLT-4 it was > 100 µM (inactive); in the experiment on HT-29, > 100 µM (inactive); in the experiment with NCI-H226, 38.5 µM (inactive). The GI50 in the experiment on SF-268 is > 100 µM (inactive); in the experiment with SNB-19, 44.2 µM (inactive); in the experiment on HCT-116 it was > 100 µM (inactive); in the experiment with SK-MEL-2, > 100 µM (inactive); with SK-MEL-28, > 100 µM (inactive); in the experiment on DU-145 it was > 100 µM (inactive). Also, the values for the GI50 in the experiment on Hs-578T and in the experiment with PC-3 were 35.5 µM (inactive) and > 100 µM (inactive), respectively.

For the compound `O=C(O)CCc1nc2c(n1Cc1ccccc1)C(=O)c1ccccc1C2=O`, the GI50 in the experiment on A549 was 50.4 µM (inactive); with RPMI-8226, 39 µM (inactive); in the experiment with K562, 57.3 µM (inactive); in the experiment with NCI/ADR-RES it was 59.6 µM (inactive); with IGROV-1 it was 70.3 µM (inactive); in the experiment with CCRF-CEM, 76.7 µM (inactive). Further, the GI50 in the experiment with MDA-MB-231 is 33.5 µM (inactive); with EKVX it was 78.2 µM (inactive); in the experiment with MCF7 it was 43.8 µM (inactive); with MOLT-4 it was 68.9 µM (inactive); in the experiment with HT-29, 42 µM (inactive); in the experiment with NCI-H226, > 100 µM (inactive). Besides, the GI50 with SF-268 is 60.5 µM (inactive); with SNB-19, > 100 µM (inactive); in the experiment on HCT-116, 36.3 µM (inactive); in the experiment on SK-MEL-2, 26 µM (inactive); in the experiment on SK-MEL-28 it was > 100 µM (inactive); in the experiment with DU-145 it was > 100 µM (inactive). Also, the GI50 was 66.5 µM (inactive) with Hs-578T and 72.9 µM (inactive) in the experiment with PC-3.

`COc1ccc2c(c1)C(=O)C(=O)c1cc(O)c(OC)c(OC)c1-2`: the GI50 in the experiment on A549 is 2.73 µM (inactive); in the experiment with RPMI-8226, 1.09 µM (active); in the experiment with K562, 0.838 µM (active); with NCI/ADR-RES, 1.03 µM (active); with IGROV-1 it was 0.791 µM (active); with CCRF-CEM, 0.791 µM (active). In addition, the GI50 with MDA-MB-231 was 0.957 µM (active); with EKVX, 0.979 µM (active); in the experiment on MCF7, 0.902 µM (active); in the experiment on MOLT-4, 0.114 µM (active); in the experiment on HT-29, 1.32 µM (inactive); in the experiment on NCI-H226, 5.64 µM (inactive). For the same compound, the GI50 was 1 µM (active) with SF-268; 1.01 µM (active) in the experiment on SNB-19; 0.813 µM (active) with HCT-116; 0.861 µM (active) in the experiment with SK-MEL-2; 0.845 µM (active) with SK-MEL-28; 0.918 µM (active) in the experiment on DU-145. Besides, the GI50 with Hs-578T and in the experiment with PC-3 was 1.07 µM (active) each time.

For `NC(Cc1c[nH]c(I)n1)C(=O)O` (stereo not given), the GI50 is > 100 µM (inactive) in the experiment on A549; > 100 µM (inactive) with RPMI-8226; 53.6 µM (inactive) in the experiment on K562; 37.1 µM (inactive) with NCI/ADR-RES; 67 µM (inactive) with IGROV-1; 22.1 µM (inactive) with CCRF-CEM. For the same compound, the GI50 is > 100 µM (inactive) in the experiment with MDA-MB-231; 42.7 µM (inactive) with EKVX; 41.4 µM (inactive) in the experiment with MCF7; > 100 µM (inactive) in the experiment on MOLT-4; > 100 µM (inactive) in the experiment on HT-29; > 100 µM (inactive) with NCI-H226. Also, the GI50 in the experiment with SF-268 was 84.9 µM (inactive); with SNB-19, > 100 µM (inactive); with HCT-116 it was 81.5 µM (inactive); with SK-MEL-2, > 100 µM (inactive); in the experiment with SK-MEL-28, 74.1 µM (inactive); with DU-145, > 100 µM (inactive). For the same compound, the GI50 was 23.8 µM (inactive) in the experiment with Hs-578T and > 100 µM (inactive) with PC-3.

Turning to `COC1=CCC2=C(CCN(C(=O)C3CCC3)C2Cc2ccc(OC)c(O)c2)C1` (stereo not given), the GI50 is 31.6 µM (inactive) in the experiment with A549; 29.4 µM (inactive) in the experiment with RPMI-8226; 4.45 µM (inactive) in the experiment with K562; 9.82 µM (inactive) in the experiment with NCI/ADR-RES; 26.8 µM (inactive) with IGROV-1; 21.8 µM (inactive) in the experiment with CCRF-CEM. Also, the GI50 was 21.1 µM (inactive) in the experiment on MDA-MB-231; 25.7 µM (inactive) in the experiment on EKVX; 7.14 µM (inactive) in the experiment on MCF7; 12.7 µM (inactive) in the experiment with MOLT-4; 20.3 µM (inactive) in the experiment on HT-29; 49.1 µM (inactive) in the experiment on NCI-H226. Moreover, the GI50 is 33.1 µM (inactive) in the experiment on SF-268; 35.8 µM (inactive) with SNB-19; 11.9 µM (inactive) in the experiment on HCT-116; 24.2 µM (inactive) in the experiment on SK-MEL-2; 45.3 µM (inactive) with SK-MEL-28; 20.3 µM (inactive) in the experiment on DU-145. Besides, the GI50 with Hs-578T was 14.6 µM (inactive); with PC-3 it was 23.6 µM (inactive).
